# Test results published in paper PMC8878317, “Chemogenomics identifies acetyl-coenzyme A synthetase as a target for malaria treatment and prevention” (Cell Chemical Biology, 2022).
# Like-named read-outs stand apart in the source and are kept apart here.
# Experiments:
# PfAcAS T648M = molecular target: T1, PfAcAS T648M (Plasmodium falciparum, UniProt C6KTB4, T648M); assay: EnzChek assay, recombinant PfAcAS T648M; assay type: biochemical, P. falciparum
# T1 sequence (C6KTB4 1-997 T648M): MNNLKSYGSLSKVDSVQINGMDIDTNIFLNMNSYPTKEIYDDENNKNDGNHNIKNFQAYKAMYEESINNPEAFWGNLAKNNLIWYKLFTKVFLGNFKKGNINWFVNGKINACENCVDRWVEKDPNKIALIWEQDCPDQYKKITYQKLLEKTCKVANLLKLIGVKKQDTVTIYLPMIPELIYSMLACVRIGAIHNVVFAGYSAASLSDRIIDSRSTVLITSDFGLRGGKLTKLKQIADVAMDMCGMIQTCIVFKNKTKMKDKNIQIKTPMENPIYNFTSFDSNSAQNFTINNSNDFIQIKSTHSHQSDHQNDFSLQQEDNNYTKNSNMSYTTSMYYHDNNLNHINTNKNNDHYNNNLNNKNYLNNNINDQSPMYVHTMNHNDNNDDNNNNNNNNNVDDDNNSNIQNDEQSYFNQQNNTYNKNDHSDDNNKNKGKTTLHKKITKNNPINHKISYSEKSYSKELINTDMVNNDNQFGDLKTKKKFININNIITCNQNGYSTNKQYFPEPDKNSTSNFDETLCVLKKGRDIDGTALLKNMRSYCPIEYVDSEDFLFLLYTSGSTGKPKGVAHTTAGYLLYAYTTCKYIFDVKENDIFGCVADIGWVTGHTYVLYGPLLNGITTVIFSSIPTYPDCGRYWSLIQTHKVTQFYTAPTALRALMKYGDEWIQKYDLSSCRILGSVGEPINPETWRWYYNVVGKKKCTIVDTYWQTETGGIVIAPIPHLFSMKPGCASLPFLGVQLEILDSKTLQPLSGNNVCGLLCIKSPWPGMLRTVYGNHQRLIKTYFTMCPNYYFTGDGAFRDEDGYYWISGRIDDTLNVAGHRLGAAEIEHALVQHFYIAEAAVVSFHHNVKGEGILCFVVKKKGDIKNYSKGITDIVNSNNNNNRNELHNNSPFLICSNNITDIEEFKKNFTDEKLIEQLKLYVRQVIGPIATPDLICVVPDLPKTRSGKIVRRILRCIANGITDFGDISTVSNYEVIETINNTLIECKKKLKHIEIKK
# Experimental: (§1) Steady-state kinetic measurements were conducted at room temperature using a PheraStar plate reader (BMG). The first step of the reaction of PfAcAS, which produces inorganic pyrophosphate (PPi) that is converted to two molecules of inorganic phosphate using a pyrophosphatase enzyme, was continuously monitored using the EnzChek Phosphate Assay Kit, which gives an absorbance readout at 360 nm (Figure 4A) ([Webb, 1992]). […] By adding CoA, the reaction rapidly proceeds to the second step resulting in further release of pyrophosphate, making the EnzChek assay a suitable option to continuously monitor the activity of PfAcAS. Typical kinetic assays were carried out in clear, flat-bottom, polystyrene, 384-well plates (Greiner) in an 80 μL reaction volume containing 100 mM HEPES (pH7.4), 100 mM NaCl, 250 mM KCl, 50 mM MgCl2, 1 mM DTT, 0.004% Tween 20, 0.5 U/mL pyrophosphatase, 0.1 mM MESG, 0.5 U/mL PNP, 2 mM ATP, 2 mM acetate, 0.5 mM CoA and 5 nM recombinant PfAcAS WT or 10 nM recombinant PfAcAS A597V or T648M. Assays were performed by adding 40 μL of a 2-times concentrated substrate mixture including MESG to all wells, and the reactions started by adding 40 μL of a 2-times concentrated reaction mixture containing all other components. The reactions were carried out for 2 to 4 hr with absorbance readings at 360 nm every two to four minutes. Reaction rates were extracted from the linear phase of activity, usually using 10 to 20 points between times of 30 and 100 min of the reactions. Using a phosphate standard curve obtained under the same buffer conditions used for the PfAcAS reactions (Figure S5A), the rates were then converted to velocity per second, conversion of one nanomolar of phosphate, per nanomolar of enzyme, per second. The substrates Km values were determined by varying the concentration of one of the substrates at saturating concentration of the other two substrates. Steady-state data were fitted using the nonlinear, least-squares, curve-fitting programs of Sigma-Plot for Windows, version 14.0. Individual saturation curves were fit to Equation 1(Equation 1) v=VS/K+S where V is the maximal velocity, S is the substrate concentration and K is the Michaelis constant for the substrate (Km). Individual saturation curves displaying substrate inhibition were fit to Equation 2(Equation 2) v=VS/K+S×(1+S/Ks) where Ks is the substrate inhibition constant.
# (§2) To determine the steady-state inhibition parameters and patterns associated with both inhibitors, PfAcAS activity was studied in the presence of variable concentrations of one substrate, ATP, acetate or CoA, fixed saturating concentration of the other two substrates (acetate and CoA, ATP and CoA, or ATP and acetate) and several fixed concentrations of inhibitor. Assay ready plates containing different concentrations of inhibitor were prepared using an Echo 550 acoustic dispenser (Labcyte Inc.). The assays were carried out as described in the previous section. […] For better comparison between both inhibitors and proteins, the ymin was fixed to zero and the ymax to 100. Inhibition data showing linear, competitive patterns in double-reciprocal plots were fit to Equation 4(Equation 4) v=VS/K(1+I/Ki)+S where Ki is the dissociation constant for the enzyme-inhibitor complex. Inhibition data showing linear, mixed inhibition patterns in double-reciprocal plots were fit to Equation 5(Equation 5) v=VS/K(1+I/Kis)+S(1+I/Kii) where Kis is the dissociation constant for the free enzyme-inhibitor complex and Kii is the dissociation constant for the enzyme-substrate-inhibitor complex. Inhibition data showing linear, uncompetitive patterns in double-reciprocal plots were fit to Equation 6(Equation 6) v=VS/K+S(1+I/Ki)
# PfAcAS WT = PfAcAS WT (Plasmodium falciparum, UniProt C6KTB4); assay: PfAcAS mode of inhibition studies (EnzChek); assay type: biochemical, P. falciparum; parameters: key to MoI (mode of inhibition), Kis/Kii,acetate / MoI (mode of inhibition), Ki,ATP / MoI (mode of inhibition), Kis,acetate / MoI (mode of inhibition), Ki,CoA: UC = uncompetitive; MI = mixed inhibition; C = competitive
# Experimental: as §1, §2
# [1] = variable ATP, saturating acetate and CoA, linear uncompetitive, read-out: Ki versus ATP
# [2] = variable CoA, saturating ATP and acetate, read-out: Ki versus CoA
Structure (SMILES),"Hill, AcAS T648M (PfAcAS T648M)",IC50 (PfAcAS T648M) [nM],"MoI (mode of inhibition), Ki,ATP (PfAcAS WT; Table S6 (MMV019721 MoI))","MoI (mode of inhibition), Ki,CoA (PfAcAS WT; Table S6 (MMV019721 MoI))","MoI (mode of inhibition), Kis,acetate (PfAcAS WT; Table S6 (MMV019721 MoI))","MoI (mode of inhibition), Kis/Kii,acetate (PfAcAS WT; Table S6, fourth column (head printed MMV019721 MoI))",Ki (PfAcAS WT; [1]) [nM],Ki (PfAcAS WT; [2]) [nM],"Ki (PfAcAS WT; variable acetate, saturating ATP and CoA, linear uncompetitive, read-out: Ki versus acetate) [nM]","Kii against acetate (PfAcAS WT; linear mixed inhibition, enzyme-substrate-inhibitor complex) [nM]","Ki (PfAcAS WT; linear mixed inhibition, free enzyme-inhibitor complex, read-out: Kis against acetate) [nM]"
CCN(CC)S(=O)(=O)c1ccc(Cl)c(C(=O)Nc2ccc3nc(C)sc3c2)c1 [MMV019721],0.81 ± 0.12,18000 ± 3200,UC,C,UC,MI,200 ± 8,22 ± 1,150 ± 10,,
O=C(NNC(=O)c1csnn1)c1ccc(Cl)cc1 [MMV084978],,> 100000,,,,,680 ± 26,690 ± 24,,390 ± 110,30 ± 3
